Data taken from patent publication US11952365B2, “Anti-viral compounds” (Aligos Therapeutics, Inc., priority 2020, dated 2024).
Like-named read-outs stand apart in the source and are kept apart here.

Assays:
[1] = test system: human beta-coronavirus OC43; assay: microbe, parasite or virus in culture; assay type: cell-based; details: OC43 in HeLa cells, 6 days at 33° C., read-out: EC50
[2] = in vitro; details: human
[3] = molecular target: 3CLpro (Severe acute respiratory syndrome coronavirus 2, UniProt P0DTD1); assay: SARS-CoV-2 3CLpro protease assay (duplex, SAMDI-MS); assay type: biochemical; design: For the duplex assay, 3CLpro and HRV3C was added; details: 30 mins preincubation, class symbols
[4] = test system: SARS-CoV-2-GHB-03021/2020; assay: microbe, parasite or virus in culture; assay type: cell-based
[5] = Cytotoxicity plates without OC43 virus (cell-titer-glo); assay type: cell-based, human; details: human; HeLa cells without OC43 virus, class symbols
How it was run: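 HeLa cells seeded overnight, then treated with serially diluted compounds in 2% FBS EMEM, uninfected, in parallel with the OC43 antiviral plates. Incubated 6 days at 33 °C; viability read by CellTiter-Glo luminescence.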

[6] = in vitro; details: African green monkey, VeroE6 + CP (CC50)
[7] = molecular target: HRV3C (Human rhinovirus 14, UniProt P03303); assay: HRV3C protease assay (duplex, SAMDI-MS); assay type: biochemical, HRV; details: 30 mins preincubation
How it was run: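 Enzyme preincubated 30 min with compound at ambient temperature, then both biotinylated peptide substrates added (duplex with 3CLpro); 30 min reaction quenched with 0.5% formic acid (final). Product read by SAMDI-MS as product/internal-standard AUC ratio; IC50 from four-parameter fit.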

[8] = molecular target: T1, human cathepsin L (Homo sapiens, UniProt P07711); assay: cathepsin L assay; assay type: biochemical; details: 10 pM human cathepsin L, Z-FR-AMC 2 μM, class symbols
T1 construct: purchased R&D Systems
How it was run: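 Human cathepsin L at 10 pM was preincubated 30 min with compound, then reaction started with Z-FR-AMC (2 μM final). Fluorescence (355/460 nm) read every 2 min for 30 min; IC50 from four-parameter curve fit.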

[9] = test system: SARS-CoV-2-GHB-03021/2020; assay: SARS-CoV-2 Infection Model in Huh7 Cells; assay type: cell-based; details: Severe acute respiratory syndrome coronavirus 2, Huh-7, 96 h, SARS-CoV-2, day 4 p.i., MTS
[10] = Betacoronavirus 1, OC43, HeLa, 144 h, class symbols
[11] = 3CLpro, read-out: SARS-Cov-2 IC50
[12] = Severe acute respiratory syndrome coronavirus 2, Vero C1008, 96 h; read-out: VeroE6 + CP (EC50)
[13] = Vero E6-eGFP cells with CP-100356, absence of virus, MTS, class symbols
[14] = HRV3C, class symbols, read-out: HRV IC50
[15] = Vero E6-eGFP cells with CP-100356, absence of virus, MTS, numeric bounds
[16] = HRV3C, bound, read-out: HRV IC50

Row | Structure (SMILES) | EC50 [1, 10] [µM] | CC50 [2] [µM] | IC50 [3, 11] [µM] | EC50 [4, 12] [µM] | CC50 at 6 days [5] [µM] | CC50 [6, 13] [µM] | IC50 [7, 14] [µM] | IC50 [8] [µM] | EC50 ([9]; class symbols) [µM] | CC50 [6, 15] [µM] | IC50 ([7]; HRV IC50, HRV3C, class symbols) [µM] | IC50 [7, 16] [µM] | EC50 ([9]; numeric bounds) [µM] | EC50 ([1]; class symbols) [µM] | EC50 ([1]; Betacoronavirus 1, OC43, HeLa, 144 h, bound) [µM] | IC50 ([3]; SARS-Cov-2 IC50, 3CLpro) [µM] | EC50 ([4]; Severe acute respiratory syndrome coronavirus 2, Vero C1008, 96 h, read-out: VeroE6 + CP (EC50)) [µM] | CC50 [6] [µM]
1 | COc1cccc2[nH]c(C(=O)N3C[C@@H]4CCC[C@@H]4[C@H]3C(=O)N[C@@H](CC3CC(C)(C)NC3=O)C(=O)COCc3ccccc3)cc12 (relative stereo) [Compound 70A_1, (1S,3aR,6aS)—N-[(2S)-4-(benzyloxy)-1-[(3R*)-5,5-dimethyl-2-oxopyrrolidin-3-yl]-3-oxobutan-2-yl]-2-(4-methoxy-1H-indole-2-carbonyl)-hexahydro-1H-cyclopenta[c]pyrrole-1-carboxamide] | < 0.1 | > 10 | 0.02 to 0.2 | 1 to 10 | > 10 | > 10 | 2 to 20 | ≥ 10 | 1 to 10 | – | – | – | – | – | – | – | – | –
2 | COc1cccc2[nH]c(C(=O)N3C[C@@H]4CCC[C@@H]4[C@H]3C(=O)N[C@@H](CC3CC(C)(C)NC3=O)C(=O)CO)cc12 (relative stereo) [Compound 70_1, (1S,3aR,6aS)—N—((S)-1-((R*)-5,5-dimethyl-2-oxopyrrolidin-3-yl)-4-hydroxy-3-oxobutan-2-yl)-2-(4-methoxy-1H-indole-2-carbonyl)octahydrocyclopenta[c]pyrrole-1-carboxamide] | 0.1 to 1 | > 10 | < 0.02 | < 1 | > 10 | > 10 | 0.2 to 2 | ≥ 10 | 1 to 10 | – | – | – | – | – | – | – | – | –
3 | COc1cccc2[nH]c(C(=O)N3C[C@@H]4CCCC[C@@H]4[C@H]3C(=O)N[C@@H](C[C@@H]3CCCNC3=O)C(=O)COCc3ccccc3)cc12 (single isomer, unassigned) [Compound 59A_1] | 0.1 to 1 | > 10 | 0.02 to 0.2 | < 1 | > 10 | > 10 | 2 to 20 | ≥ 10 | < 1 | – | – | – | – | – | – | – | – | –
4 | COc1cccc2[nH]c(C(=O)N3C[C@@H]4CCC[C@@H]4[C@H]3C(=O)N[C@@H](CC3CC(C)(C)NC3=O)C(=O)C(=O)NC3CC3)cc12 (single isomer, unassigned) [Compound 95, (3S)-3-{[(1S,3aR,6aS)-2-(4-methoxy-1H-indole-2-carbonyl)-hexahydro-1H-cyclopenta[c]pyrrol-1-yl]formamido}-N-cyclopropyl-4-[(3R*)-5,5-dimethyl-2-oxopyrrolidin-3-yl]-2-oxobutanamide] | 0.1 to 1 | > 50 | 0.02 to 0.2 | 1 to 10 | > 10 | – | – | ≥ 10 | 1 to 10 | > 50 | 0.2 to 2 | – | – | – | – | – | – | –
5 | COc1cccc2[nH]c(C(=O)N3C[C@@H]4CCC[C@@H]4[C@H]3C(=O)NC(CN3CCCC3=O)C(=O)C(=O)NC3CC3)cc12 (single isomer, unassigned) [Compound 113A, (1S,3aR,6aS)—N—((S*)-4-(cyclopropylamino)-3,4-dioxo-1-(2-oxopyrrolidin-1-yl)butan-2-yl)-2-(4-methoxy-1H-indole-2-carbonyl)octahydrocyclopenta[c]pyrrole-1-carboxamide] | 1 to 10 | > 50 | 0.2 to 2 | 10 to 100 | > 10 | – | – | ≥ 10 | 10 to 100 | > 50 | – | > 10 | – | – | – | – | – | –
6 | COc1cccc2[nH]c(C(=O)N3C[C@@H]4CCC[C@@H]4[C@H]3C(=O)N[C@H](CN3CCCC3=O)C(=O)C(=O)NC3CC3)cc12 (single isomer, unassigned) [Compound 113B] | 1 to 10 | > 50 | 2 to 20 | 10 to 100 | > 10 | – | 2 to 20 | ≥ 10 | – | > 50 | – | – | > 50 | – | – | – | – | –
7 | O=C(NC1CC1)C(=O)C(CC1CC2(CC2)NC1=O)NC(=O)[C@@H]1[C@H]2CCC[C@H]2CN1C(=O)c1cc2c(Cl)cc(Cl)cc2[nH]1 (single isomer, unassigned) [Compound 116A, (1S,3aR,6aS)—N-(4-(cyclopropylamino)-3,4-dioxo-1-((R*)-5-oxo-4-azaspiro[2.4]heptan-6-yl)butan-2-yl)-2-(4,6-dichloro-1H-indole-2-carbonyl)octahydrocyclopenta[c]pyrrole-1-carboxamide] | – | > 10 | 0.02 to 0.2 | 1 to 10 | > 10 | – | 0.2 to 2 | ≥ 10 | < 1 | > 50 | – | – | – | 0.1 to 1 | – | – | – | –
8 | O=C(NCc1ccccc1)C(=O)C(C[C@@H]1CCNC1=O)NC(=O)[C@@H]1C[C@@H](c2ccccc2)CN1C(=O)c1cc2ccccc2[nH]1 (some centres unmarked) [Compound 7] | 0.1 to 1 | > 10 | 0.2 to 2 | 1 to 10 | > 10 | > 10 | 0.2 to 2 | < 0.1 | 1 to 10 | – | – | – | – | – | – | – | – | –
9 | O=C[C@H](C[C@@H]1CCCNC1=O)NC(=O)[C@@H]1[C@H]2CCC[C@H]2CN1C(=O)c1cc2ccccc2[nH]1 [Compound 15, (1S,3aR,6aS)-2-(1H-indole-2-carbonyl)-N—((S)-1-oxo-3-((S)-2-oxopiperidin-3-yl)propan-2-yl)octahydrocyclopenta[c]pyrrole-1-carboxamide] | 0.1 to 1 | > 100 | < 0.02 | 1 to 10 | > 10 | – | 0.02 to 0.2 | 1 to 10 | 1 to 10 | > 100 | – | – | – | – | – | – | – | –
10 | COc1cccc2[nH]c(C(=O)N3C[C@@H]4CCC[C@@H]4[C@H]3C(=O)N[C@@H](C[C@@H]3CCCNC3=O)C(=O)CO)cc12 [Compound 41, (1S,3aR,6aS)—N-[(2S)-4-hydroxy-3-oxo-1-[(3S)-2-oxopiperidin-3-yl]butan-2-yl]-2-(4-methoxy-1H-indole-2-carbonyl)-hexahydro-1H-cyclopenta[c]pyrrole-1-carboxamide] | < 0.1 | > 100 | – | 1 to 10 | > 10 | – | – | ≥ 10 | 1 to 10 | > 100 | – | > 10 | – | – | – | – | – | –
11 | CS(=O)(=O)c1cccc2[nH]c(C(=O)N3C[C@@H]4CCC[C@@H]4[C@H]3C(=O)N[C@@H](C[C@@H]3CCNC3=O)C(=O)CO)cc12 [Compound 150, (1S,3aR,6aS)—N-[(2S)-4-hydroxy-3-oxo-1-[(3S)-2-oxopyrrolidin-3-yl]butan-2-yl]-2-(4-methanesulfonyl-1H-indole-2-carbonyl)-hexahydro-1H-cyclopenta[c]pyrrole-1-carboxamide] | – | > 50 | – | – | > 10 | – | – | ≥ 10 | – | – | – | – | > 50 | – | > 10 | 0.2 to 2 | > 50 | > 50
12 | O=C(NC1CC1)C(=O)[C@H](C[C@@H]1CCNC1=O)NC(=O)[C@@H]1CC2(CCN1C(=O)c1cc3c(C4CC4)cccc3[nH]1)CC2 [Compound 180] | – | > 10 | 0.02 to 0.2 | 1 to 10 | – | – | 0.2 to 2 | 1 to 10 | 1 to 10 | > 50 | – | – | – | – | – | – | – | –
13 | O=C(NC1CC1)C(=O)[C@H](C[C@@H]1CCNC1=O)NC(=O)[C@@H]1CC2(CCN1C(=O)c1cc3ccccc3o1)CC2 [Compound 181] | – | > 10 | 0.02 to 0.2 | 1 to 10 | – | – | 0.2 to 2 | 1 to 10 | 1 to 10 | > 50 | – | – | – | – | – | – | – | –
14 | O=C(NCCCC(F)(F)F)C(=O)[C@H](C[C@@H]1CCNC1=O)NC(=O)[C@@H]1[C@H]2CCC[C@H]2CN1C(=O)c1cc2c(Cl)cc(Cl)cc2[nH]1 [Compound 182] | – | 1 to 10 | 0.2 to 2 | 1 to 10 | – | > 10 | – | ≥ 10 | – | – | – | > 10 | > 10 | – | – | – | – | –
15 | CC(C)CCCNC(=O)C(=O)[C@H](C[C@@H]1CCNC1=O)NC(=O)[C@@H]1[C@H]2CCC[C@H]2CN1C(=O)c1cc2c(Cl)cc(Cl)cc2[nH]1 [Compound 183] | – | 1 to 10 | 0.02 to 0.2 | < 1 | – | 1 to 10 | – | 1 to 10 | 1 to 10 | – | – | > 10 | – | – | – | – | – | –
